Assay results: patent US8648066B2 (Exelixis, Inc., priority 2009, dated 2014)

molecular target: mTOR/GbL/Raptor (mTORC1) (Homo sapiens, UniProt P42345); assay: mTOR/GbL/Raptor (mTORC1) ELISA assay; assay type: biochemical; settings: phosphorylation of 4E-BP1; 0.2 nM mTORC1, 10 μM ATP; read-out: IC50 in this assay (mTORC1 ELISA)
How it was run: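 Human mTORC1 (0.2 nM) phosphorylated 50 nM His-tagged 4E-BP1 with 10 µM ATP in HEPES pH 7.2 containing 10 mM MnCl2, 120 min at ambient temperature. Substrate was captured on Ni-chelate plates; phospho-4E-BP1 was detected by primary antibody and HRP secondary with luminescence.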

IC50 [nM]	SMILES
10 to 50	Cc1ncnc(N2CCOc3ccc(-c4cc5[nH]c(N)nc5cn4)cc3C2)c1Cc1ccc(F)cc1 [Example 216, 6-(4-{5-[(4-fluorophenyl)merthyl]-6-methylpyrimidin-4-yl}-2,3,4,5-tetrahydro-1,4-benzoxazepin-7-yl)-1H-imidazo[4,5-c]pyridin-2-amine]
10 to 50	CC1(C)CCc2ncnc(N3CCOc4ccc(-c5cnc(N)c(S(=O)(=O)CCCO)c5)cc4C3)c2C1 [Example 430, 3-({2-amino-5-[4-(6,6-dimethyl-5,6,7,8-tetrahydroquinazolin-4-yl)-2,3,4,5-tetrahydro-1,4-benzoazepin-7-yl]pyridin-3-yl}sulfonyl)propan-1-ol]
250 to 1000	CC1(C)CCc2ncnc(N3CCOc4ccc(-c5ccc(Cl)c(NS(C)(=O)=O)c5)cc4C3)c2C1 [Example 621]
10 to 50	CC1(C)CCc2ncnc(N3CCOc4ccc(-c5cnc(N)c(CS(C)(=O)=O)c5)cc4C3)c2C1 [Example 517, 5-[4-(6,6-dimethyl-5,6,7,8-tetrahydroquinazolin-4-yl)-2,3,4,5-tetrahydro-1,4-benzoxazepin-7-yl]-3-[(methylsulfonyl)methyl] pyridin-2-amine]
≤ 10	Cc1nc2ccc(-c3ccc4c(c3)CN(c3ncnc(C)c3Cc3ccccc3)CCO4)cc2[nH]1 [Example 55, 7-(2-methyl-1H-benzimidazol-6-yl)-4-[6-methyl-5-(phenylmethyl)pyrimidin-4-yl]-2,3,4,5-tetrahydro-1,4-benzoxazepine]
50 to 250	CCNc1nc2ccc(-c3ccc4c(c3)CN(c3ncnc5cc(OC)c(OC)cc35)CCO4)cc2[nH]1 [Example 259, 6-{4-[6,7-bis(methyloxy)quinazolin-4-yl]-2,3,4,5-tetrahydro-1,4-benzoxazepin-7-yl}-N-ethyl-1H-benzimidazol-2-amine]
≤ 10	CC1(C)CCc2ncnc(N3CCOc4ccc(-c5cnc(N)c(S(=O)(=O)N6CC[C@H](N)C6)c5)cc4C3)c2C1 [Example 452, 3-{[(3S)-3-aminopyrrolidin-1-yl]sulfonyl}-5-[4-(6,6-dimethyl-5,6,7,8-tetrahydroquinazolin-4-yl)-2,3,4,5-tetrahydro-1,4-benzoxazepin-7-yl]pyridin-2-amine]
≤ 10	CC(C)(N)CNS(=O)(=O)c1cc(-c2ccc3c(c2)CN(c2ncnc4c2CC(C)(C)CC4)CCO3)cnc1N [Example 406, 2-amino-N-(2-amino-2-methylpropyl)-5-[4-(6,6-dimethyl-5,6,7,8-tetrahydroquinazolin-4-yl)-2,3,4,5-tetrahydro-1,4-benzoxazepin-7-yl]pyridine-3-sulfonamide]
10 to 50	Cc1nc2ccc(-c3ccc4c(c3)CN(c3ncnc(C)c3Cc3ccc(C(F)(F)F)cc3)CCO4)cc2[nH]1 [Example 90, 7-(2-methyl-1H-benzimidazol-6-yl)-4-(6-methyl-5-{[4-(trifluoromethyl)phenyl]methyl}pyrimidin-4-yl)-2,3,4,5-tetrahydro-1,4-benzoxazepine]
250 to 1000	COc1ccc2c(N3CCOc4ccc(-c5ccc6[nH]c(C)nc6c5)cc4C3)nc(CN(C)C)nc2c1 [Example 659, N,N-dimethyl-1-{4-[7-(2-methyl-1H-benzimidazol-5-yl)-2,3-dihydro-1,4-benzxazepin-4(5H)-yl]-7-(methyloxy)quinazolin-2-yl}methanamine]
≥ 2000	c1ccc2c(N3CCOc4ccc(-c5ccc6nccnc6c5)cc4C3)ccnc2c1 [Example 132, 4-quinolin-4-yl-7-quinoxalin-6-yl-2,3,4,5-tetrahydro-1,4-benzoxazepine]
50 to 250	CC1(C)CCc2ncnc(N3CCOc4ccc(-c5cnc(C#N)c(NS(C)(=O)=O)c5)cc4C3)c2C1 [Example 625, N-{2-cyano-5-[4-(6,6-dimethyl-5,6,7,8-tetrahydroquinazolin-4-yl)-2,3,4,5-tetrahydro-1,4-benzoxazepin-7-yl]pyridin-3-yl}methanesulfonamide]
